Entries after “also recorded” stand apart in the source; their conditions may differ.
Legend:
[1] = biological target: T1, importin-α (Mus musculus, UniProt P52293); experiment: X-ray crystal structure of Tat:NLS/CPP importin-α complex (PDB 5SVZ)
[2] = biological target: T1, importin-α; experiment: Binding of importin-α to immobilised GST-Tat:NLS/CPP on glutathione column, SDS-PAGE; design: 6-His; made in house; The pET30 vector and Studier autoinduction imply E. coli (own inference); settings: GST-Tat:NLS/CPP fusion immobilised on glutathione column, importin-α passed over
[3] = overall binding, 2.0 Å structure

For “GRKKRRQRRRAPQN [Tat:NLS/CPP, entire cell penetrating region of HIV-1 Tat, residues 48–61, recombinantly expressed as a GST-fusion, tag cleaved by TEV for crystallisation]”, the “binding site on importin-α” value ([1]; 2.0 Å structure) was “binds to the major binding site of importin-α within ARM domains 2–4; also recorded: no NLS residues in the minor binding site”, the hydrogen bond distance ([1]; Tat Arg49 O – importin-α Asn235 ND2, PDBSum) was 2.77 Å and the hydrogen bond distance ([1]; Tat Arg52 NH1 – importin-α Arg106 O, PDBSum) was 2.81 Å. It also gave a hydrogen bond distance ([1]; Tat Arg52 NH1 – importin-α Leu104 O, PDBSum) of 2.84 Å, a hydrogen bond distance ([1]; Tat Arg52 NH2 – importin-α Arg106 O, PDBSum) of 3.02 Å and a hydrogen bond distance ([1]; Tat Arg52 NH2 – importin-α Glu107 O, PDBSum) of 3.20 Å. For the same sequence, the hydrogen bond distance ([1]; Tat Arg53 N – importin-α Asn146 OD1, PDBSum) was 2.89 Å, the hydrogen bond distance ([1]; Tat Arg53 NH1 – importin-α Gln181 OE1, PDBSum) was 2.49 Å and the hydrogen bond distance ([1]; Tat Arg53 O – importin-α Asn146 ND2, PDBSum) was 2.66 Å. For the same sequence, the hydrogen bond distance ([1]; Tat Arg53 O – importin-α Trp142 NE1, PDBSum) was 3.24 Å, the salt bridge distance ([1]; Tat Lys50 NZ – importin-α Asp192 OD1, salt bridge interaction, PDBSum) was 2.89 Å and the hydrogen bond distance ([1]; Tat Lys50 NZ – importin-α Gly150 O, PDBSum) was 2.91 Å. For the same sequence, the hydrogen bond distance ([1]; Tat Lys50 NZ – importin-α Thr155 OG1, PDBSum) was 2.80 Å, the hydrogen bond distance ([1]; Tat Lys51 N – importin-α Asn188 OD1, PDBSum) was 2.81 Å and the hydrogen bond distance ([1]; Tat Lys51 O – importin-α Asn188 ND2, PDBSum) was 2.79 Å. For the same sequence, the hydrogen bond distance ([1]; Tat Lys51 O – importin-α Trp184 NE1, PDBSum) was 3.02 Å, the buried surface area [1, 3] was 717 Å^2 and the “number of salt bridge interactions” value [1, 3] was 1 salt bridge. For the same sequence, the “binding to importin-α (column retention / complex formation)” value [2] was “strong and direct interaction”.
